Measurements as given in US10681908B2, “Molecules having pesticidal utility, and intermediates, compositions, and processes, related thereto” (Dow AgroSciences LLC, priority 2016, dated 2020).

Legend:
Format in all cases: in vivo
[1] = tested on: Green Peach Aphid (Myzus persicae, MYZUPE); assay: Bioassay on Green Peach Aphid (GPA), foliar spray on infested cabbage seedlings; conditions: 72 h, 200 ppm foliar spray, three days, Abbott corrected % control, read-out: GPA % Control (or Mortality) rating
Description: Example B: Bioassays on Green Peach Aphid (Myzus Persicae, MYZUPE) (“GPA”)
Certain molecules disclosed in this document were tested against GPA using procedures described in the following example. In the reporting of the results, the “GPA & YFM Rating Table” was used (See Table Section).
Cabbage seedlings grown in 3-inch pots, with 2-3 small (3-5 cm) true leaves, were used as test substrate. The seedlings were infested with 20-50 GPA (wingless adult and nymph stages) one day prior to chemical application. Four pots with individual seedlings were used for each treatment. Test molecules (2 mg) were dissolved in 2 mL of acetone/methanol (1:1) solvent, forming stock solutions of 1000 ppm test molecule. The stock solutions were diluted 5× with 0.025% Tween 20 in water to obtain the solution at 200 ppm test molecule. A hand-held aspirator-type sprayer was used for spraying a solution to both sides of […] leaves until runoff. Reference plants (solvent check) were sprayed with the diluent only containing 20% by volume of acetone/methanol (1:1) solvent. Treated plants were held in a holding room for three days at approximately 25° C. and ambient relative humidity (RH) prior to grading. Evaluation was conducted by counting the number of live aphids per plant under a microscope. Percent Control was measured by using Abbott's correction formula (W. S. Abbott, “A Method of Computing the Effectiveness of an Insecticide” J. Econ. Entomol. 18 (1925), pp. 265-267) as follows. Corrected % Control=100*(X−Y)/X • where • X=No. of live aphids on solvent check plants and • Y=No. of live aphids on treated plants

[2] = tested on: Beet Armyworm (Spodoptera exigua, LAPHEG); assay: Bioassay on Beet Armyworm (BAW), 128-well diet tray assay; conditions: 168 h, 50 μg/cm^2 on artificial diet, second instar larvae, five to seven days, 25° C., read-out: BAW % Control (or Mortality) rating
Outline: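 Artificial diet was surface-treated with 50 μg/cm^2 of compound in 90:10 acetone-water and dried; one to five second-instar larvae were placed per well, eight wells per treatment. Held at 25 °C, 14:10 light-dark, for five to seven days, then percent mortality per well was averaged.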

[3] = tested on: Yellow Fever Mosquito (Aedes aegypti, AEDSAE); conditions: about 1 day-old larvae, 3 days, room temperature, scored on mortality
Outline: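 Compounds from DMSO master plates (4000 ppm stock) diluted with 90:10 water:acetone, then about 1-day-old larvae in liver-powder water added. Held covered at room temperature for 3 days; each well scored for mortality.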

[4] = tested on: Cabbage Looper (Trichoplusia ni, TRIPNI); assay: Bioassay on Cabbage Looper (CL), 128-well diet tray assay; conditions: 168 h, 50 μg/cm^2 on artificial diet, second instar larvae, five to seven days, 25° C., read-out: CL % Control (or Mortality) rating
Outline: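 Diet-tray assay: 1–5 second-instar larvae per well on artificial diet surface-treated with 50 μg/cm^2 compound (90:10 acetone-water, dried), eight wells per compound. Held at 25° C., 14:10 light-dark for five to seven days; percent mortality per well averaged across the eight wells.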

Compound | mortality at 200 ppm [1] | mortality at 50 µg/cm2 [2] | YFM % Control (or Mortality) rating [3] | mortality at 50 µg/cm2 [4]
C[C@H](CS(=O)(=O)CCC#N)NC(=O)c1ccc(/C(F)=C/C(c2cc(Cl)c(Cl)c(Cl)c2)C(F)(F)F)cc1C(F)(F)F (stereo partly drawn) [F123, N—((R)-1-((2-cyanoethyl)sulfonyl)propan-2-yl)-4-((Z)-1,4,4,4-tetrafluoro-3-(3,4,5-trichlorophenyl)but-1-en-1-yl)-2-(trifluoromethyl)benzamide] | 0% | 50 to 100% | A (80-100) | 50 to 100%
C[C@H](C[S+]([O-])CCC#N)NC(=O)c1ccc(/C(F)=C/C(c2cc(Cl)c(Cl)c(Cl)c2)C(F)(F)F)cc1C(F)(F)F (stereo partly drawn) [F122, N-((2R)-1-((2-Cyanoethyl)sulfinyl)propan-2-yl)-4-((Z)-1,4,4,4-tetrafluoro-3-(3,4,5-trichlorophenyl)but-1-en-1-yl)-2-(trifluoromethyl)benzamide] | 0 to 80% | 50 to 100% | A (80-100) | 50 to 100%
C[C@H](CS(=O)(=O)CC(F)(F)F)NC(=O)c1ccc(/C(F)=C/C(c2cc(Cl)c(C(F)F)c(Cl)c2)C(F)(F)F)cc1C(F)(F)F (stereo partly drawn) [F104] | 0% | 50 to 100% | A (80-100) | 50 to 100%
